Patent US20100056519A1, “COMPOSITION AND METHOD FOR REDUCING PLATELET ACTIVATION AND FOR THE TREATMENT OF THROMBOTIC EVENTS” (priority 2008, published 2010)

Experiments:
Type in all cases: cell-based, human
P-selectin (CD62p) = test: Unstimulated whole blood flow cytometry, P-selectin; conditions: unstimulated, Mean ± SD
Procedure: (§1) The methodology employed was conventional aggregation induced by 5 μM ADP, 1 μg/ml collagen, 10 μM TRAP, whole blood aggregation with 1 μg/ml collagen, Ultegra, and PFA-100 Analyzers, expression of 14 intact, and TRAP-stimulated major receptors by whole blood flow cytometry were utilized to assess platelet activity after preincubation with escalating concentrations of E5555 (20 ng/ml, 50 ng/ml, and 100 ng/ml). The experiments were performed in healthy volunteers, CAD patients treated with ASA, and CAD patients treated with ASA and clopidogrel combination (n=10, for each group).
(§2) An Informed Consent was obtained from all volunteers. Drug users were excluded from data analysis. The study was approved by Quorum Institutional Review Board. All subjects underwent blood sampling after at least 30 minutes of rest and two or more hours of fasting. Blood (28 ml) was drawn between 8 and 10 a.m. in order to avoid any diurnal influence and sampled from an antecubital vein using a 21-gauge butterfly needle containing 3.2% sodium citrate (1:9 volume) after having discarded the first 1.5 ml of free running blood. Four Vacutainer tubes (7.0 ml) were collected for a total of 28 ml of whole blood-citrate mixture from each study participant. Chronologically, blood samples were delivered to the core laboratory facility within 45 minutes after drawing. Then all tubes of blood-citrate mixture were pooled. One portion of pooled blood (5 ml) was kept as an internal control and pretreated with the vehicle. The remaining blood (23 ml) was used for the in vitro exposure to E5555 at concentrations of 20 ng/ml, 50 ng/ml, and 100 ng/ml. […] The platelet aggregation studies, Rapid Analyzers measures, and flow cytometry preparations were initiated within no more than 110 minutes following the blood draw, incubation with the drug, and preparation of the samples.
(§3) Formation of platelet-leukocyte aggregates was assessed by dual labeling with pan-platelet marker (CD151), and then with CD14, the macrophage receptor for endotoxin lipopolysaccharides (PharMingen, and Coulter, San Diego, Calif., USA). The tubes were then covered with aluminum foil and incubated at 37° C. for 40 minutes with gentle rotation. After incubation, samples were immediately analyzed on a Becton Dickinson FACScan flow cytometer. The instrument was set up to measure forward light scatter, and FITC fluorescence. All parameters were collected using four-decade logarithmic amplification. The data was retrieved in list mode files and then analyzed. P selectin was expressed as percent positive cells. Other antigens were expressed as log mean fluorescence intensity.

SPAN-12 = test: Unstimulated whole blood flow cytometry, SPAN-12; conditions: Mean ± SD
Procedure: as §1, §2, §3

PMA (CD14 + CD151) = test: TRAP-stimulated whole blood flow cytometry, platelet-monocyte aggregates; conditions: Mean ± SD
Procedure: as §1, §2, §3
(§4) For flow cytometry (TRAP-stimulated) all of the above flow cytometry experiments were identically repeated utilizing prestimulation with 10 μmol/L TRAP for 5 minutes at 37° C. To determine statistics, a Paired Sign Test was used to define significance of differences between vehicle and E5555-treated groups. The Mann-Whitney U test was used to analyze nonparametric data. Normally distributed data were expressed as mean±standard error (m±SE), and skewed data as median (range). All P-values were two sided. All analysis was performed using the SPSS v9.0 program (SPSS Inc., Chicago, Ill.).

PAC-1 (GPIIb/IIIa) = test: Unstimulated whole blood flow cytometry, PAC-1; conditions: for PAC-1 (GPIIb/IIIa), Mean Fluorescence Intensity: unstimulated, Mean ± SD
Procedure: as §1, §2, §3

WEDE15 = test: TRAP-stimulated whole blood flow cytometry, WEDE15; conditions: Mean ± SD
Procedure: as §1, §2, §3, §4

[1] = E5555 50 ng/ml, Patients (ASA + C)
[2] = E5555 100 ng/ml, Patients (ASA + C)
[3] = E5555 100 ng/ml, Patients (ASA)
[4] = E5555 20 ng/ml, Patients (ASA + C)

SMILES: Br.CCOc1cc2c(c(F)c1OCC)C(=N)N(CC(=O)c1cc(N3CCOCC3)c(OC)c(C(C)(C)C)c1)C2 [E5555, 1-(3-tert-butyl-4-methoxy-5-morpholinophenyl)-2-(5,6-diethoxy-7-fluoro-1-imino-1,3-dihydro-2H-isoindol-2-yl)ethanone hydrobromide]
- P-selectin (CD62p), % positive cells (P-selectin (CD62p); [1]): 7.7 ± 2.2 % positive cells
- P-selectin (CD62p), % positive cells (P-selectin (CD62p); E5555 50 ng/ml, Patients (ASA)): 10.1 ± 1.8 % positive cells
- P-selectin (CD62p), % positive cells (P-selectin (CD62p); E5555 50 ng/ml, Volunteers): 12.3 ± 2.2 % positive cells
- P-selectin (CD62p), % positive cells (P-selectin (CD62p); [2]): 8.0 ± 11.5 % positive cells
- P-selectin (CD62p), % positive cells (P-selectin (CD62p); [3]): 10.7 ± 1.6 % positive cells
- P-selectin (CD62p), % positive cells (P-selectin (CD62p); E5555 100 ng/ml, Volunteers): 11.4 ± 1.8 % positive cells
- SPAN-12, Mean Fluorescence Intensity (SPAN-12; [4]): 11 ± 4 MFI
- SPAN-12, Mean Fluorescence Intensity (SPAN-12; E5555 20 ng/ml, Patients (ASA)): 14 ± 3 MFI
- SPAN-12, Mean Fluorescence Intensity (SPAN-12; E5555 20 ng/ml, Volunteers): 19 ± 4 MFI
- SPAN-12, Mean Fluorescence Intensity (SPAN-12; [1]): 10 ± 6 MFI
- SPAN-12, Mean Fluorescence Intensity (SPAN-12; E5555 50 ng/ml, Patients (ASA)): 11 ± 5 MFI
- SPAN-12, Mean Fluorescence Intensity (SPAN-12; E5555 50 ng/ml, Volunteers): 19 ± 6 MFI
- SPAN-12, Mean Fluorescence Intensity (SPAN-12; [2]): 12 ± 7 MFI
- SPAN-12, Mean Fluorescence Intensity (SPAN-12; [3]): 13 ± 5 MFI
- SPAN-12, Mean Fluorescence Intensity (SPAN-12; E5555 100 ng/ml, Volunteers): 18 ± 6 MFI
- PMA (CD14 + CD151), Mean Fluorescence Intensity (PMA (CD14 + CD151); [4]): 100 ± 21 MFI
- PMA (CD14 + CD151), Mean Fluorescence Intensity (PMA (CD14 + CD151); E5555 20 ng/ml, Patients (ASA)): 109 ± 23 MFI
- PMA (CD14 + CD151), Mean Fluorescence Intensity (PMA (CD14 + CD151); E5555 20 ng/ml, Volunteers): 133 ± 19 MFI
- PMA (CD14 + CD151), Mean Fluorescence Intensity (PMA (CD14 + CD151); [1]): 77 ± 23 MFI
- PMA (CD14 + CD151), Mean Fluorescence Intensity (PMA (CD14 + CD151); E5555 50 ng/ml, Patients (ASA)): 82 ± 10 MFI
- PMA (CD14 + CD151), Mean Fluorescence Intensity (PMA (CD14 + CD151); E5555 50 ng/ml, Volunteers): 118 ± 14 MFI
- PMA (CD14 + CD151), Mean Fluorescence Intensity (PMA (CD14 + CD151); [2]): 108 ± 19 MFI
- PMA (CD14 + CD151), Mean Fluorescence Intensity (PMA (CD14 + CD151); [3]): 116 ± 23 MFI
- PMA (CD14 + CD151), Mean Fluorescence Intensity (PMA (CD14 + CD151); E5555 100 ng/ml, Volunteers): 125 ± 20 MFI
- GP IIb/IIIa activity with PAC-1, effect in words (PAC-1 (GPIIb/IIIa); overall summary, stimulation not stated): significant reduction
- PAC-1 (GPIIb/IIIa), Mean Fluorescence Intensity (PAC-1 (GPIIb/IIIa); [4]): 5.9 ± 0.8 MFI
- PAC-1 (GPIIb/IIIa), Mean Fluorescence Intensity (PAC-1 (GPIIb/IIIa); E5555 20 ng/ml, Patients (ASA)): 10.4 ± 1.2 MFI
- PAC-1 (GPIIb/IIIa), Mean Fluorescence Intensity (PAC-1 (GPIIb/IIIa); E5555 20 ng/ml, Volunteers): 10.7 ± 1.3 MFI
- PAC-1 (GPIIb/IIIa), Mean Fluorescence Intensity (PAC-1 (GPIIb/IIIa); [1]): 6.2 ± 1.0 MFI
- PAC-1 (GPIIb/IIIa), Mean Fluorescence Intensity (PAC-1 (GPIIb/IIIa); E5555 50 ng/ml, Patients (ASA)): 10.1 ± 2.0 MFI
- PAC-1 (GPIIb/IIIa), Mean Fluorescence Intensity (PAC-1 (GPIIb/IIIa); E5555 50 ng/ml, Volunteers): 9.2 ± 1.5 MFI
- PAC-1 (GPIIb/IIIa), Mean Fluorescence Intensity (PAC-1 (GPIIb/IIIa); [2]): 6.3 ± 0.7 MFI
- PAC-1 (GPIIb/IIIa), Mean Fluorescence Intensity (PAC-1 (GPIIb/IIIa); [3]): 11.7 ± 2.1 MFI
- PAC-1 (GPIIb/IIIa), Mean Fluorescence Intensity (PAC-1 (GPIIb/IIIa); E5555 100 ng/ml, Volunteers): 9.9 ± 2.0 MFI
- WEDE15, Mean Fluorescence Intensity (WEDE15; [4]): 33 ± 5 MFI
- WEDE15, Mean Fluorescence Intensity (WEDE15; E5555 20 ng/ml, Patients (ASA)): 38 ± 6 MFI
- WEDE15, Mean Fluorescence Intensity (WEDE15; E5555 20 ng/ml, Volunteers): 40 ± 7 MFI
- WEDE15, Mean Fluorescence Intensity (WEDE15; [1]): 34 ± 6 MFI
- WEDE15, Mean Fluorescence Intensity (WEDE15; E5555 50 ng/ml, Patients (ASA)): 39 ± 6 MFI
- WEDE15, Mean Fluorescence Intensity (WEDE15; E5555 50 ng/ml, Volunteers): 40 ± 5 MFI
- WEDE15, Mean Fluorescence Intensity (WEDE15; [2]): 33 ± 6 MFI
- WEDE15, Mean Fluorescence Intensity (WEDE15; [3]): 40 ± 8 MFI
- WEDE15, Mean Fluorescence Intensity (WEDE15; E5555 100 ng/ml, Volunteers): 40 ± 8 MFI
